Assay results from patent US9415094B2, “Method of reducing side effects associated with administration of tissue plasminogen activator (tPA)” (INSERM (Institut National de la Sante et de la Recherche …, priority 2009, dated 2016).

Key:
[1] = test system: elastase-treated mice (emphysema); experiment: Elastase-induced emphysema in mice; format: in vivo; conditions: HDL 75 mg/kg; AAT alone 3.75 mg/kg; i.v., 4 injections
Description: First, large amount of HDL purified from human plasma by ultracentrifugation was pooled in order to work with the same batch of HDL and HDL enriched with AAT. AAT was incubated for 16 hours at 37° C. under gentle agitation. […] A Western-Blot for AAT and apolipoprotein A-I was performed on HDL and HDL loaded with AAT. […] Anti-elastase assay was performed in parallel, corroborating the results obtained by WB. These experiments quantify AAT in enriched HDL. The same amount of free AAT was then injected in a control group. The aim of this experiment is to test whether HDL-AAT prevent more the development of emphysema relative to AAT injected alone. HDL containing naturally AAT are also injected in another group.
45 mice are subjected to intra-tracheal elastase instillation.
The mice were sacrificed 28 day after initial instillation of elastase, and the emphysema was semi-quantified by scoring alveoli destruction (double blind determination by two independent pathologists).

transient filament MCAO = experiment: Transient filament MCAO (fMCAO) with tPA (Example 9)
Text: STAIR recommendations have been followed to avoid bias due to experimental design 10. Animal care and experimental protocols were approved by the Animal Ethics Committee of the INSERM-University Paris 7. Male Sprague-Dawley rats (Janvier, France) weighing 300 to 350 g, were anesthetized by isoflurane mixed with air (4% for induction; 1% during surgery), under spontaneous respiration. Two different models of focal cerebral ischemia were used as requested by STAIR recommendations: embolic (eMCAO) and transient filament MCAO (fMCAO). Focal cerebral ischemia was induced by intraluminal occlusion of the middle cerebral artery for 4 hours. eMCAO was induced by injection of a preformed clot at the origin of MCA as already described. Continuous laser Doppler flowmetry (VMS, Moor Instrument) was used to monitor regional cerebral perfusion to ensure the adequacy of filament MCA occlusion (perfusion decreased to <20% of preischemic baselines). […] Saline (2.0 mL/kg body weight) with or without recombinant tPA (10 mg/kg body weight; Actilyse, Boehringer Ingelheim) was administered (10% bolus, 90% continuous infusion) to rats via the right femoral vein. The relatively high dose of tPA was necessary to achieve a fibrinolytic effect in rats similar to that of thrombolytic therapy in humans. Continuous tPA or saline infusion (for 30 min. Harvard Apparatus Infusion Pump) started 4 hours after stroke onset, immediately before recanalization (after withdrawal of the filament in fMCAO), or 4 hours after clot placement in the MCA. After saline or tPA administration, rats were returned to their cages. Body temperature was maintained at 37° C.±0.5 with a heating pad for the duration of surgery. Glycemia, arterial blood pressure and blood gases were also monitored during surgery. […] Computer-based randomization was used to allocate drug regimens to each group. Experiments were blinded and the operator was unaware of group allocation during surgery and outcome assessment.
Seven coronal sections of the brain (2 mm in thickness) were stained with 2% 2,3,5-triphenyltetrazolium chloride (TTC, Sigma-Aldrich) for 20 minutes at room temperature. […] Volume calculation with oedema correction was performed blindly using the following formula: 100× (contralateral hemisphere volume−non infarct ipsilateral hemisphere volume)/contralateral hemisphere volume. […] Ten-micrometer sections were cut from the caudal site of all 7 slices and analyzed before TTC staining. Areas of hemorrhagic transformation from these 7 brain sections were measured using Photoshop software by semi-automatic selection of extravasated erythrocytes.

[2] = test system: collagen IV (basal lamina of cerebral microvessels); experiment: Collagen IV immunoreactivity in cerebral microvessels (filament MCAO); format: in vivo, Sprague-Dawley rats; conditions: 24 hours after stroke; combination relative to tPA alone
Description: Frozen sections were fixed with 3.7% paraformaldehyde and blocked with 10% goat serum. Sections were incubated overnight at 4° C. with a rabbit polyclonal to collagen IV (2 μg/mL, Abcam) for detection of basal lamina of intracerebral vessels. FITC-conjugated Bandeiraea Simplicifolia Lectin I (isolectin B4) (5 μg/mL, Vector Laboratories) was used to visualize endothelial cells. Non-immune rabbit IgG were included in each set of experiments as primary antibody to test the specificity of the signal. We used Alexa-Fluor® 555 as secondary antibodies. Immunostaining was analysed with a fluorescent microscope interfaced with a digital capture system. All immunohistological evaluations were carried out by an observer who was blinded to the treatment. For semi-quantification of the collagen type IV expression, three fields of each territory were acquired using a×10 objective. A threshold of fluorescence intensity, which encompasses positive vessels on the contralateral image, was applied to each corresponding ipsilateral image. IHC analysis was performed in filament MCAO model.

embolic MCAO = experiment: Embolic MCAO (eMCAO) with tPA (Example 9)
Text: STAIR recommendations have been followed to avoid bias due to experimental design 10. Animal care and experimental protocols were approved by the Animal Ethics Committee of the INSERM-University Paris 7. Male Sprague-Dawley rats (Janvier, France) weighing 300 to 350 g, were anesthetized by isoflurane mixed with air (4% for induction; 1% during surgery), under spontaneous respiration. Two different models of focal cerebral ischemia were used as requested by STAIR recommendations: embolic (eMCAO) and transient filament MCAO (fMCAO). Focal cerebral ischemia was induced by intraluminal occlusion of the middle cerebral artery for 4 hours. eMCAO was induced by injection of a preformed clot at the origin of MCA as already described. Continuous laser Doppler flowmetry (VMS, Moor Instrument) was used to monitor regional cerebral perfusion to ensure the adequacy of filament MCA occlusion (perfusion decreased to <20% of preischemic baselines). […] Saline (2.0 mL/kg body weight) with or without recombinant tPA (10 mg/kg body weight; Actilyse, Boehringer Ingelheim) was administered (10% bolus, 90% continuous infusion) to rats via the right femoral vein. The relatively high dose of tPA was necessary to achieve a fibrinolytic effect in rats similar to that of thrombolytic therapy in humans. Continuous tPA or saline infusion (for 30 min. Harvard Apparatus Infusion Pump) started 4 hours after stroke onset, immediately before recanalization (after withdrawal of the filament in fMCAO), or 4 hours after clot placement in the MCA. […] Glycemia, arterial blood pressure and blood gases were also monitored during surgery. […]
Seven coronal sections of the brain (2 mm in thickness) were stained with 2% 2,3,5-triphenyltetrazolium chloride (TTC, Sigma-Aldrich) for 20 minutes at room temperature. […] Ten-micrometer sections were cut from the caudal site of all 7 slices and analyzed before TTC staining. Areas of hemorrhagic transformation from these 7 brain sections were measured using Photoshop software by semi-automatic selection of extravasated erythrocytes.

hCMEC/D3 cells = experiment: In vitro blood-brain barrier model with tPA under OGD; format: cell-based, human
Description: The human brain endothelial cell line hCMEC/D3 kindly provided by Dr. P. O. Couraud. Cells were cultured in complete EBM-2 medium (Endothelial Basal Medium+2.5% of fetal calf serum and supplements containing hydrocortisone and growth factors).
OGD (Oxygen Glucose Deprivation) conditions were obtained by using DMEM medium without glucose (Gibco) versus 1 g/L glucose DMEM for non-OGD conditions. Oxygen deprivation was obtained by using a hypoxia chamber (Billups-Rothenberg) where atmospheric air was replaced by a mix of gas (0% O2, 5% CO2, 95% N2, Air Product). DMEM used for OGD conditions was equilibrated with the same mix.
For permeability experiments, hCMEC/D3 cells were seeded at 5.105 cells/cm^2 on collagen inserts (PCF filters, 0.4 μm pore size, Millicell 24-well plates, Millipore) in complete EBM-2. Cells were grown for 14 days post-confluence before use. Permeability was assessed using fluorescein isothiocyanate (FITC) labelled dextran (70 kDa molecular weight). […] 200 μL from the collecting wells were transferred into a 96-well plate, and the dextran fluorescence was determined on the microplate reader at 485 nm (excitation) and 538 nm (emission). Fluorescence was converted to concentration using a standard curve. The volume cleared was calculated from the ratio of dextran concentration in each sample to the applied concentration (0.385 mg/mL). The endothelial permeability coefficient Pe (cm/min) was calculated by determining the volumes of clearance of dextran with or without cells. The cleared volume was calculated from the […], and plotted against time. PS (permeability surface) was calculated from 1/PS=1/PSe−1/PSf, where PSe is the slope of clearance in the presence of cells and PSf is the slope for a blank insert (cell free)16. […]
For detection of fibronectin in HCMEC/D3 cell culture supernatant, 5 μL of conditioned medium were analyzed by SDS-8% PAGE. […]

blood-brain barrier = experiment: IgG extravasation in filament MCAO model; format: in vivo, Sprague-Dawley rats; conditions: tPA vs saline; combination vs tPA alone
Description: Blood-brain barrier permeability was evaluated in vivo by using fluorescence detection of IgG extravasation in filament MCAO model. At 24 hours after stroke, rats were deeply anesthetized with pentobarbital and transcardially perfused with saline. Brains were removed, cut in 2 mm coronal sections, embedded with OCT and frozen. Ten μm sections (at +0.70 mm posterior to bregma) were prepared. Sections were prepared and incubated overnight at 4° C. with donkey anti-rat IgG antibodies (5 μg/mL, Molecular Probes) labelled with Alexa Fluor® 488. IgG extravasation was quantified semi-automatically with morphometry software (Histolab 6.1.5, Microvision Instruments).

[3] = acute phase of stroke; cited from earlier work

AAT: 52 kD glycoprotein, natural inhibitor of neutrophil elastase
protective effect on development of emphysema [1]: mild protective effect

tPA: recombinant tissue plasminogen activator, thrombolytic drug approved for stroke
edema surrounding ischemic cerebral vessels (transient filament MCAO; compared to HDL+tPA group): Large edema
infarct volume (transient filament MCAO; fMCAO, 24 hours, tPA and HDL alone vs saline, combination vs tPA alone): increased infarct volume
mortality rate (transient filament MCAO; fMCAO, tPA 10 mg/kg 4 hours after stroke onset, 24 hours): 86.05%
mortality (transient filament MCAO; fMCAO, tPA and HDL alone vs saline, combination vs tPA alone): increased
number of collagen IV immunoreactive vessels in the infarcted area [2]: decreased
infarct volume (embolic MCAO; 24 hours, tPA and HDL alone vs saline, combination vs tPA alone): increased infarct volume
mortality rate (embolic MCAO; tPA 10 mg/kg 4 hours after stroke onset, 24 hours): 56.25%
mortality (embolic MCAO; tPA and HDL alone vs saline, combination vs tPA alone): increased
VE-cadherin intercellular junction organization (hCMEC/D3 cells; 200 nM tPA and/or 400 μg/mL HDL): induced a disorganization of intercellular junctions
release of soluble fibronectin/fragments in supernatants (hCMEC/D3 cells; 200 nM tPA and/or 400 μg/mL HDL, Western Blot): induced an important release of fibronectin/fragments
BBB permeability in vitro (hCMEC/D3 cells; 200 nM tPA, 4 hours of stimulation): neither tPA nor OGD were sufficient to induce increased BBB permeability
IgG extravasation in the ischemic hemisphere (blood-brain barrier): significantly increased IgG extravasation
increase in symptomatic cerebral haemorrhage [3]: 10 fold
